Experimental data published in patent publication US8252940B2, “5-substituted-2-imino-thiazolidinone compounds and their use as inhibitors of bacterial infection” (University of Washington, priority 2008, dated 2012).

Assays:
Ysc T3S system = experiment: Secretion profile of Y. enterocolitica Ysc T3S system; assay type: cell-based, Yersinia enterocolitica; conditions: 380 μM
flagellar T3S system = experiment: Flagellar function: motility assay and flagellin secretion; assay type: cell-based, S. typhimurium; conditions: 380 μM
bone marrow macrophages = experiment: Cytotoxicity of compound added directly to macrophages (LDH release)
[1] = tested on: bone marrow macrophages infected with S. typhimurium; experiment: S. typhimurium T3-dependent cytotoxicity of bone marrow macrophages (LDH release); conditions: bacteria grown in presence of compound; multiplicity of 40; 40% without compound
InvG, PrgH and PrgK = experiment: Abundance and membrane localization of NC proteins (Western blot of membrane fractions); assay type: cell-based, S. typhimurium; conditions: 380 μM
Procedure: FIG. 3A is an image of a Western blot of type III secretion NC proteins isolated from S. typhimurium grown in the presence (+) or absence (−) of 380 μM of Compound 1. FIG. 3B is an image of a Western blot of membrane fractions of S. typhimurium grown in the presence (+) or absence (−) of 380 μM of Compound 1. In the presence of Compound 1, InvG cellular levels and bacterial membrane localization were unaltered (FIGS. 3A and 3B). Similarly, protein levels and localization of the other NC proteins PrgH and PrgK were unchanged.

Ysa T3S system = experiment: Secretion profile of Y. enterocolitica Ysa T3S system; assay type: cell-based, Yersinia enterocolitica; conditions: 380 μM
T3S needle complex (NC) = T3S needle complex (NC) (Salmonella typhimurium, UniProt P35672); assay type: cell-based, S. typhimurium
Sequence of T3S needle complex (NC) (P35672 25-562, one chain of several): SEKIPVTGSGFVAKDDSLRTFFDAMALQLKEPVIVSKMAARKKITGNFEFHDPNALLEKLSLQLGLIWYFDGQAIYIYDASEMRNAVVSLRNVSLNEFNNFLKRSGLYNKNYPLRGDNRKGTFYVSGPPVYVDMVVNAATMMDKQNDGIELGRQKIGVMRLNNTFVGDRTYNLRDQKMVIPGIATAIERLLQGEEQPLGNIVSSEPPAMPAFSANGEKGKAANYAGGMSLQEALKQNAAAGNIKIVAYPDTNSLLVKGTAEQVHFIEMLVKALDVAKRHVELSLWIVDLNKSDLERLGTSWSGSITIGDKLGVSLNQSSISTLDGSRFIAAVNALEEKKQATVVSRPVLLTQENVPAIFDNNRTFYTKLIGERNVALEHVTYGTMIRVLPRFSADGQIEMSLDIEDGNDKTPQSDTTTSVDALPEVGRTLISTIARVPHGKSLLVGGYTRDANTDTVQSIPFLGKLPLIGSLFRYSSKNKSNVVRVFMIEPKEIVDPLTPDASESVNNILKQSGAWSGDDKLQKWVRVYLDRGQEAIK

[2] = tested on: P. aeruginosa twitching motility (T4P); experiment: Twitching assay; assay type: cell-based, Pseudomonas aeruginosa; conditions: 380 μM in motility plates
[3] = tested on: S. typhimurium T3S secreted substrates; assay type: cell-based; conditions: Western blot
[4] = tested on: invF, prgH, and sipA genes; experiment: Transcriptional reporter fusions of T3S genes to lacZ, β-Galactosidase activity; conditions: cultures grown in presence vs absence of compound
[5] = tested on: T2-dependent secretion of elastase; experiment: Elastolytic activity assay of culture supernatants (elastin Congo red); conditions: 380 μM; 18 hour culture (PAO1-C); untreated PAO1 1.881, pilD 0.098
[6] = tested on: type III secretion in S. typhimurium; experiment: microbe, parasite or virus in culture; assay type: cell-based, Salmonella enterica serovar Typhimurium; conditions: for % Secretion: type III secretion in S. typhimurium, SipA secretion by Western blot; for inhibition at 3.3 µM / inhibition at 33 µM / inhibition at 330 µM: Salmonella enterica, TYPHIMURIUM, read-out: % inhibition of SipA secretion; for % inhibition of SipA secretion: Western blot
[7] = tested on: Francisella virulence protein secretion; assay type: cell-based, Francisella novicida; conditions: 380 μM
[8] = tested on: Pseudomonas syringae pv tomato DC3000; experiment: Hypersensitivity response (HR) in non-host tobacco plants; assay type: in vivo; conditions: 380 μM, overlapping infiltration, compared with solvent alone; 24 hours
From the text: Inhibition of T3S-dependent pathogenesis of the plant pathogen, Pseudomonas syringae pv tomato DC3000 for tobacco. The bacterial plant pathogen Pseudomonas syringae pv tomato DC3000 requires T3S of virulence determinants to cause disease. The hypersensitivity response (HR) elicited by P. syringae in non-host tobacco plants depends upon a functional T3S system, representing an established virulence model for this pathogen. To determine the effect of Compound 1 on P. syringae pathogenesis for plants, overlapping infiltrations of P. syringae and Compound 1 were performed. P. syringae was inoculated on non-host tobacco plants and monitored for HR. Bacterial inoculations partially overlapped inoculations of either 380 μM of Compound 1 or the solvent DMSO. HR was measured by tissue collapse of plants cells in the overlapping region.
Therefore, these compounds, which blocked disease in an important model of plant pathogenesis, may have utility in preventing disease of plants.

COc1cc(/C=C2\S/C(=N\c3ccccc3)N(c3ccccc3)C2=O)cc(OC)c1O [Compound 1]
Yop proteins in culture supernatants (Ysc T3S system): absent
S. typhimurium motility (flagellar T3S system): unaffected
secretion of flagellin (flagellar T3S system): unaltered
lysis of macrophages exposed to compound alone (bone marrow macrophages): did not lyse
caspase-1 dependent cell death of macrophages [1]: 0.5%
InvG cellular levels and bacterial membrane localization (InvG, PrgH and PrgK): unaltered
protein levels and localization of PrgH and PrgK (InvG, PrgH and PrgK): unchanged
Ysp proteins in culture supernatants (Ysa T3S system): absent
NC proteins in isolated needle complexes (T3S needle complex (NC); 380 μM, Western blot): overall reduction
NC number on the cell surface (T3S needle complex (NC); electron micrographs of osmotically shocked cells): marked reduction
P. aeruginosa twitching motility [2]: significantly reduced
secretion of SipA and SspH1 expressed from the T3S-independent lac promoter [3]: Neither of these proteins was secreted
amount of T3 secreted proteins SipA, B, and C ([3]; cultures grown in presence of compound): marked decrease
β-Galactosidase activity of invF, prgH, sipA lacZ fusions [4]: similar
OD495, elastolytic activity of culture supernatant [5]: 0.437
inhibition of known T3S substrates ([6]; 380 uM): complete inhibition
% Secretion [6]: 0 ± 0%
secretion of the known Francisella virulence proteins [7]: inhibited secretion
ability of P. syringae to elicit HR [8]: reduced ability to elicit HR

COc1cc(/C=C2\SC(=Nc3ccccc3)N([C@@H](CCCN)C(=O)N[C@@H](CC3CNc4ccccc43)C(N)=O)C2=O)cc(OC)c1O (stereo partly drawn) [compound 90, (S)-5-amino-N-((S)-1-amino-3-(indolin-3-yl)-1-oxopropan-2-yl)-2-((5Z)-5-(4-hydroxy-3,5-dimethoxybenzylidene)-4-oxo-2-(phenylimino)thiazolidin-3-yl)pentanamide]
inhibition at 3.3 µM [6]: 20%
inhibition at 33 µM [6]: 22%
inhibition at 330 µM [6]: 100%

COc1cc(/C=C2\S/C(=N\c3ccccc3)N([C@@H](CCCN)C(=O)N[C@@H](C)C(N)=O)C2=O)cc(OC)c1O [compound 86]
% inhibition of SipA secretion ([6]; 3.3 μM): 19%
% inhibition of SipA secretion ([6]; 33 μM): 46%
% inhibition of SipA secretion ([6]; 330 μM): 100%

COc1cc(/C=C2\S/C(=N\c3ccccc3)N(C(CCCNC(=N)N)C(=O)N3Cc4ccccc4C[C@H]3C(N)=O)C2=O)cc(OC)c1O (stereo partly drawn) [compound 88, (S)-2-(5-guanidino-2-((2Z,5Z)-5-(4-hydroxy-3,5-dimethoxybenzylidene)-4-oxo-2-(phenylimino)thiazolidin-3-yl)pentanoyl)-1,2,3,4-tetrahydroisoquinoline-3-carboxamide]
inhibition at 33 µM [6]: 0%
inhibition at 330 µM [6]: 100%

O=C1CS/C(=N\c2ccccc2)N1c1ccccc1 [Compound 8]
% Secretion [6]: 62 ± 3%

COc1cc(/C=C2\S/C(=N\c3ccccc3)N([C@@H](CCCNC(=N)N)C(=O)N[C@@H](C)C(N)=O)C2=O)cc(OC)c1O [compound 87, (S)-N-((S)-1-amino-1-oxopropan-2-yl)-5-guanidino-2-((2Z,5Z)-5-(4-hydroxy-3,5-dimethoxybenzylidene)-4-oxo-2-(phenylimino)thiazolidin-3-yl)pentanamide]
inhibition at 3.3 µM [6]: 0%
inhibition at 33 µM [6]: 38%
inhibition at 330 µM [6]: 100%

COc1cc(/C=C2\S/C(=N\c3ccccc3)N([C@H](C)C(=O)N[C@@H](Cc3c[nH]c4ccccc34)C(N)=O)C2=O)cc(OC)c1O [compound 52, (R)-N-((S)-1-amino-3-(1H-indol-3-yl)-1-oxopropan-2-yl)-2-((2Z,5Z)-5-(4-hydroxy-3,5-dimethoxybenzylidene)-4-oxo-2-(phenylimino)thiazolidin-3-yl)propanamide]
inhibition at 330 µM [6]: 100%

COc1cc(/C=C2\S/C(=N\c3ccccc3)N([C@@H](CC3CNc4ccccc43)C(=O)N[C@@H](CCCNC(=N)N)C(N)=O)C2=O)cc(OC)c1O (some centres unmarked) [compound 98]
% inhibition of SipA secretion ([6]; 3.3 μM): 2%
% inhibition of SipA secretion ([6]; 33 μM): 12%
% inhibition of SipA secretion ([6]; 330 μM): 100%

COc1cc(/C=C2\S/C(=N\c3ccccc3)N([C@H](C)C(=O)N[C@@H](CCCN)C(N)=O)C2=O)cc(OC)c1O [compound 84, (S)-5-amino-2-((R)-2-((2Z,5Z)-5-(4-hydroxy-3,5-dimethoxybenzylidene)-4-oxo-2-(phenylimino)thiazolidin-3-yl)propanamido)pentanamide]
inhibition at 3.3 µM [6]: 5%
inhibition at 330 µM [6]: 99%

COc1cc(/C=C2\SC(=N)NC2=O)cc(OC)c1O [Compound 6]
% Secretion [6]: 64 ± 4%
